Experimental data taken from patent publication US10513680B2, “Green microalgae lacking a functional DYRKP-1 gene, for use for increased production of feedstock” (COMMISSARIAT A L'ENERGIE ATOMIQUE ET AUX ENERGIES …, priority 2014, dated 2019).

What was measured:
[1] = test system: std1 mutant; assay: Inhibition of TAG and starch accumulation by LOX inhibitor in std1 mutant under nitrogen starvation; type: cell-based, Chlamydomonas reinhardtii; conditions: 5 mM catechol, after 6-day under nitrogen starvation (FIG. 14)
Procedure: FIGS. 14A and 14B depict the inhibition of TAG and starch accumulation in the mutant by LOX inhibitors.
FIG. 14A depicts starch accumulation.
FIG. 14B depicts TAG accumulation.
The starch and chlorophyll contents were measured according to (Chochois et al., 2010). One mL of culture was harvested, centrifuged at ˜20,000 g for 10 min, resuspended in 1 mL of methyl alcohol for chlorophyll extraction and stored at −80° C. The pellets were dried, and 400 μL of water were added. To solubilize starch, the samples were autoclaved setting “dry cycle”. Subsequently, starch was degraded to glucose by adding 200 μL amyloglucosidase solution (1 U/mL, Roche) and incubation at 55° C. for 1-2 h. Using an automated sugar analyzer (Ysi model 2700 select, Yellow Springs, Ohio, USA), glucose concentration were determined. Chlorophyll was extracted by methanol, and chlorophyll a and b were determined by measuring the absorbance at 653, 666 and 750 nm using UV-VIS spectrophotometer (SAFAS UVmc2 with the software SP2000).
C. reinhardtii cells (eq. to 2 mm^3 total cellular volume) were harvested by centrifuge at 1000 g for 2 min (at 4° C.). The cells were either frozen right away under −80° C., or quenched in hot isopropanol for immediate lipid extractions. Total cellular lipids were extracted using a mixture of hexane and isopropanol (Li-Beisson et al., 2010). […]

[2] = test system: WT strains; assay: Inhibition of TAG and starch accumulation by LOX inhibitor in WT strains under nitrogen starvation; type: cell-based, Chlamydomonas reinhardtii; conditions: in response to nitrogen starvation

## Oc1ccccc1O [catechol]
[1]
  TAG accumulation: inhibited
  starch accumulation: inhibited
[2]
  TAG accumulation: inhibited
  starch accumulation: no effect
